Values after ≈ are worked out from the molar mass of the structure shown. Each block holds one molecule with its values, some of them ahead of it.
How the values were obtained:
Candida = experiment: Antifungal activity against Candida spp.; type: functional
Aspergillus fumigatus [1] = experiment: Antifungal activity against Aspergillus fumigatus in 96-well microplate method; type: functional
Aspergillus sp. = experiment: Antifungal activity against Aspergillus sp; type: functional; conditions: Aspergillus sp.; read-out: MIC
Cryptococcus neoformans [2] = experiment: Antifungal activity against Cryptococcus neoformans; type: functional; conditions: Cryptococcus neoformans; read-out: MIC
Candida albicans [3] = experiment: Antifungal activity against Candida albicans TIMM1756 by agar-dilution assay; type: functional
Aspergillus fumigatus [4] = experiment: Antifungal activity against Aspergillus fumigatus TIMM1728 by agar-dilution assay; type: functional
Aspergillus fumigatus [5] = experiment: Antifungal activity against Aspergillus fumigatus TIMM1728 assessed as inhibition of fungal growth incubated for 20 hrs; type: functional
Cryptococcus neoformans [6] = experiment: Antifungal activity against Cryptococcus neoformans TIMM1740 by agar-dilution assay; type: functional
Candida albicans [7] = experiment: Antifungal activity against Candida albicans TIMM1850 assessed as inhibition of fungal growth incubated for 20 hrs; type: functional
Candida albicans [8] = experiment: In vivo antifungal activity against Candida albicans infected in CDF1 mouse treated po 4 hrs after injection twice daily for 2 days measured on day 10; type: functional; conditions: 48 h, time 2 day
Candida albicans [9] = experiment: Antifungal activity against Candida albicans TIMM1850 by agar-dilution assay; type: functional
Aspergillus fumigatus [10] = experiment: In vivo antifungal activity against Aspergillus fumigatus infected in CDF1 mouse treated po 4 hrs after injection twice daily for 2 days measured on day 10; type: functional; conditions: 48 h, time 2 day
Aspergillus fumigatus [11] = experiment: Antifungal activity against Aspergillus fumigatus IFO6344 assessed as inhibition of fungal growth incubated for 20 hrs; type: functional
Candida albicans [12] = experiment: Antifungal activity against Candida albicans TIMM1756 assessed as inhibition of fungal growth incubated for 20 hrs; type: functional
Cryptococcus neoformans [13] = experiment: Antifungal activity against Cryptococcus neoformans TIMM1855 by agar-dilution assay; type: functional; conditions: TIMM 1855
Aspergillus fumigatus [14] = experiment: Antifungal activity against Aspergillus fumigatus IFO6344 by agar-dilution assay; type: functional
Cryptococcus neoformans [15] = experiment: Antifungal activity against Cryptococcus neoformans TIMM1740 assessed as inhibition of fungal growth incubated for 68 hrs; type: functional
Aspergillus fumigatus [16] = experiment: Antifungal activity against Aspergillus fumigatus 437 by agar-dilution assay; type: functional
Cryptococcus neoformans [17] = experiment: Antifungal activity against Cryptococcus neoformans TIMM1855 assessed as inhibition of fungal growth incubated for 68 hrs; type: functional
[18] = Oral bioavailability in monkey relative to control; type: ADME, organism-based, Macaca mulatta; conditions: rhesus monkey, in vivo
[19] = Metabolic stability in human plasma assessed as half life by measuring TAK-456 metabolite formation preinubated for 5 mins followed by compound addition measured at 5 to 120 mins by HPLC analysis; type: ADME, cell-free; conditions: time 5-120 min
[20] = Metabolic stability in Sprague-Dawley rat plasma assessed as half life by measuring TAK-456 metabolite formation preincubated for 5 mins followed by compound addition measured at 5 to 120 mins by HPLC analysis; type: ADME, cell-free; conditions: time 5-120 min
Candida albicans [21] = experiment: In vivo antifungal activity against Candida albicans infected in CDF1 mouse treated po or iv immediately after infection measured on day 7; type: functional; conditions: 168 h, time 7 day
Candida albicans [22] = experiment: Antifungal activity against Candida albicans assessed as inhibition of fungal growth incubated for 20 hrs; type: functional
Candida albicans [23] = experiment: In vivo antifungal activity against Candida albicans infected in CDF1 mouse treated po or iv 2 hrs after infection twice daily for 2 days measured on day 10; type: functional; conditions: 240 h, time 10 day
[24] = Metabolic stability in ICR mouse plasma assessed as half life by measuring TAK-456 metabolite formation preincubated for 5 mins followed by compound addition measured at 5 to 120 mins by HPLC analysis; type: ADME, cell-free; conditions: time 5-120 min
Nannizzia gypsea [25] = experiment: Potency index, ratio of MIC80 for FCZ to ratio of MIC80 for test compound against antifungal activity in Microsporum gypseum; type: functional
Candida albicans [26] = experiment: Antifungal activity against FCZ-resistant Candida albicans 100; type: functional
Candida parapsilosis = experiment: Antifungal activity against Candida parapsilosis; type: functional; conditions: Lodderomyces parapsilosis
Candida albicans [27] = experiment: Antifungal activity against FCZ-resistant Candida albicans 103; type: functional
Aspergillus fumigatus [28] = experiment: Antifungal activity against Aspergillus fumigatus; type: functional
Candida albicans [29] = experiment: Antifungal activity against Candida albicans; type: functional
Nannizzia gypsea [30] = experiment: Antifungal activity against Microsporum gypseum; type: functional
Aspergillus = experiment: Antifungal activity against Aspergillus; type: functional
Candida albicans [31] = experiment: Antifungal activity against Candida albicans SANK 51486 by 96-well microplate method; type: functional
Pichia kudriavzevii = experiment: Antifungal activity against Candida krusei; type: functional
Candida tropicalis = experiment: Antifungal activity against Candida tropicalis; type: functional
Nakaseomyces glabratus = experiment: Antifungal activity against Candida glabrata; type: functional
Cryptococcus neoformans [32] = experiment: Antifungal activity against Cryptococcus neoformans TIMM 1855 by 96-well microplate method; type: functional
Aspergillus fumigatus [33] = experiment: Antifungal activity against Aspergillus fumigatus SANK 10569 by 96-well microplate method; type: functional
Aspergillus flavus = experiment: Antifungal activity against Aspergillus flavus SANK 18497 by 96-well microplate method; type: functional

MIC (Candida): 0.0625 mg/L (≈ 0.133 µM) | MIC80 (Aspergillus fumigatus [1]): 4 mg/L (≈ 8.51 µM) | MIC (Aspergillus sp.): 16 mg/L (≈ 34 µM) | MIC (Cryptococcus neoformans [2]): 0.125 mg/L (≈ 0.266 µM)
SMILES: C[C@@H](N1Cc2sc(Br)nc2C1=O)[C@](O)(Cn1cncn1)c1ccc(F)cc1F

MIC80 (Aspergillus fumigatus [1]): 4 mg/L (≈ 8.11 µM)
SMILES: C[C@@H](N1Cc2sc(-c3ccc(C#N)cn3)nc2C1=O)[C@](O)(Cn1cncn1)c1ccc(F)cc1F

MIC (Candida albicans [3]): 0.002 mg/L (≈ 0.00415 µM) | MIC (Aspergillus fumigatus [4]): 0.03 mg/L (≈ 0.0623 µM) | MIC (Aspergillus fumigatus [5]): 0.25 mg/L (≈ 0.519 µM) | MIC (Cryptococcus neoformans [6]): 0.03 mg/L (≈ 0.0623 µM) | MIC (Candida albicans [7]): ≤ 0.001 mg/L | MIC (Candida albicans [9]): 0.002 mg/L (≈ 0.00415 µM) | MIC (Aspergillus fumigatus [11]): 0.25 mg/L (≈ 0.519 µM) | MIC (Candida albicans [12]): ≤ 0.001 mg/L | MIC (Cryptococcus neoformans [13]): 0.03 mg/L (≈ 0.0623 µM) | MIC (Aspergillus fumigatus [14]): 0.03 mg/L (≈ 0.0623 µM) | MIC (Cryptococcus neoformans [15]): 0.016 mg/L (≈ 0.0332 µM) | MIC (Aspergillus fumigatus [16]): 0.03 mg/L (≈ 0.0623 µM) | MIC (Cryptococcus neoformans [17]): 0.016 mg/L (≈ 0.0332 µM)
SMILES: C[C@@H](N1CCN(c2ccc(-n3ncnn3)cc2)C1=O)[C@](O)(Cn1cncn1)c1ccc(F)cc1F
ED50 (Candida albicans [8]): 0.18 mg/kg | ED50 (Aspergillus fumigatus [10]): 4 mg/kg

bioavailability [18]: 87%
SMILES: C[C@@H](c1nc(-c2ccc(C#N)cc2)cs1)[C@](O)(Cn1cncn1)c1cc(F)ccc1F [ISAVUCONAZOLE]

t1/2 [19]: 5 min | t1/2 [20]: 5 min | MIC (Candida albicans [22]): 0.016 mg/L | t1/2 [24]: 5 min
SMILES: CC(=O)OC[n+]1cnn(C[C@](O)(c2ccc(F)cc2F)[C@@H](C)N2CCN(c3ccc(-n4cnnn4)cc3)C2=O)c1.[Cl-]
ED50 (Candida albicans [21]): 0.62 mg/kg | ED50 (Candida albicans [23]): 4.49 mg/kg

SMILES: C[C@@H](OCc1cc(-c2ccc(F)cc2)no1)[C@](O)(Cn1cncn1)c1ccc(F)cc1F
Ratio (Nannizzia gypsea [25]): 64 | MIC80 (Candida albicans [26]): 8 mg/L (≈ 18 µM) | MIC80 (Candida parapsilosis): 0.0313 mg/L (≈ 0.0704 µM) | MIC80 (Candida albicans [27]): 8 mg/L (≈ 18 µM) | MIC80 (Aspergillus fumigatus [28]): 4 mg/L (≈ 9 µM) | MIC80 (Candida albicans [29]): 0.0313 mg/L (≈ 0.0704 µM) | MIC80 (Nannizzia gypsea [30]): 0.5 mg/L (≈ 1.13 µM)

MIC (Candida): 0.0078 mg/L (≈ 0.0163 µM) | MIC (Cryptococcus neoformans [2]): 0.0078 mg/L (≈ 0.0163 µM) | MIC (Aspergillus): 1 mg/L (≈ 2.09 µM)
SMILES: C[C@@H](N1CCn2nc(-c3ccc(C#N)nc3)nc2C1)[C@](O)(Cn1cncn1)c1ccc(F)cc1F

SMILES: CCC(C)n1ncn(-c2ccc(N3CCN(c4ccc(OCC5COC(Cn6cncn6)(c6ccc(Cl)cc6Cl)O5)cc4)CC3)cc2)c1=O (centres undefined) [ITRACONAZOLE]
MIC (Candida albicans [31]): 0.031 mg/L (≈ 0.0439 µM) | MIC (Pichia kudriavzevii): ≤ 0.25 mg/L | MIC (Candida parapsilosis): ≤ 0.25 mg/L | MIC (Candida tropicalis): ≤ 0.25 mg/L | MIC (Candida albicans [29]): ≤ 0.25 mg/L | ED50 (Candida albicans [21]): 5.19 mg/kg | ED50 (Candida albicans [23]): 19 mg/kg | MIC (Nakaseomyces glabratus): ≤ 0.25 mg/L | MIC (Cryptococcus neoformans [32]): 0.031 mg/L (≈ 0.0439 µM) | MIC (Aspergillus fumigatus [33]): 0.031 mg/L (≈ 0.0439 µM) | MIC (Aspergillus flavus): 0.031 mg/L (≈ 0.0439 µM)

MIC (Aspergillus fumigatus [5]): 0.25 mg/L (≈ 0.519 µM) | MIC (Candida albicans [7]): ≤ 0.001 mg/L | MIC (Aspergillus fumigatus [11]): 0.25 mg/L (≈ 0.519 µM) | MIC (Candida albicans [12]): ≤ 0.001 mg/L | MIC (Candida albicans [22]): 0.16 mg/L (≈ 0.332 µM) | MIC (Cryptococcus neoformans [15]): 0.016 mg/L (≈ 0.0332 µM) | MIC (Cryptococcus neoformans [17]): 0.016 mg/L (≈ 0.0332 µM)
SMILES: C[C@@H](N1CCN(c2ccc(-n3cnnn3)cc2)C1=O)[C@](O)(Cn1cncn1)c1ccc(F)cc1F
ED50 (Candida albicans [8]): 0.18 mg/kg | ED50 (Aspergillus fumigatus [10]): 4 mg/kg | ED50 (Candida albicans [21]): 0.77 mg/kg | ED50 (Candida albicans [23]): 3.56 mg/kg

MIC (Candida albicans [31]): 0.016 mg/L (≈ 0.0254 µM) | MIC (Cryptococcus neoformans [32]): 0.031 mg/L (≈ 0.0492 µM) | MIC (Aspergillus fumigatus [33]): 0.125 mg/L (≈ 0.199 µM) | MIC (Aspergillus flavus): 0.125 mg/L (≈ 0.199 µM) | MIC (Aspergillus): ≤ 0.5 mg/L
SMILES: C[C@@H](S[C@H]1CO[C@H](/C=C/C=C/c2ccc(OCC(F)(F)C(F)F)cc2)OC1)[C@](O)(Cn1cncn1)c1ccc(F)cc1F
